Experimental data taken from patent US20240325548A1, “DYNAMIC BIOACTIVE SCAFFOLDS AND THERAPEUTIC USES THEREOF AFTER CNS INJURY” (Northwestern University, priority 2021, published 2024).

Experiments:
hNPCs = test: hNPC attachment, proliferation and phenotype on co-assembled PA coatings (EdU, SOX-2, PAX6); format: cell-based, human
From the text: Neural progenitor cells (NPCs) were differentiated from human embryonic stem cells HUES 64 (Harvard University) (see FIG. 2C). In short, 70% confluent stem cell cultures grown in Matrigel (Thermo Fisher) coated plates with mTESR medium (STEMCELL Technologies), were switched to N2B27 medium (50% DMEM: F12, 50% Neurobasal, supplemented with NEAA, Glutamax, N2 and B27; Gibco) containing dual SMAD inhibitors (SB431542, DNSK International and LDN-193189, Tocris) for 12 days to induce the generation of neural progenitors. Neuralization was enhanced by supplementing medium with laminin from day 5 to 12. Next, neural rosettes were dissociated with neural rosette selection reagent (STEMCELL Technologies) to obtain NPCs, which are expanded in N2B27 (Gibco) medium supplemented with bFGF (Millipore). For experimentation in the different PA platforms, NPCs were dissociated with Accutase (Innovative Cell technology), and cultured in the distinct platforms with DMEM: F12+N2+B27 medium with hyclone penicillin-streptomycin (GE Healthcare) and ascorbic acid (0.2 μg/mL; Sigma-Aldrich).
For IKVAV PA treatments, hNPCs were cultured on ornithine coatings (German Glass, Chemglass Life Science) in 6 well and 24 well plates at a density of 500,000 cells/well and 80,000 cells/well respectively. hNPCs were treated with […] of IKVAV PAs ([PA]=6 mM, [KCl]=3 mM, [NaCl]=150 mM) or recombinant laminin protein (10 mg/mL) in solution. IKVAV PA2 and IKVAV PA5 were also mixed with 5 mM CaCl2) at a ratio PA:CaCl2) 6:1 to treat hNPCs. For 2D experiments, hNPCs were cultured on the different IKVAV PAs or laminin coatings in 6 well and 24 well plates at densities mentioned above. For co-assembled experiments, hNPCs were cultured on the different co-assembled PA coatings in 6 well and 24 well plates at a density of 400,000 cells/well and 50,000 cells/well respectively.
hNPCs were fed 4 times a week with DMEM: F12+N2^+B27 medium with hyclone penicillin-streptomycin and ascorbic acid. After 24 h, 72 h 1- or 2-weeks in vitro, cell lysates were harvested or fixed for WB or ICC, respectively. Three replicates per condition and at least three independent experiments were carried out for all conditions investigated.
For the hNPCs proliferation assay, 2 μM of the thymidine analog 5-ethynyl-2′-deoxyuridine (EdU, Thermo Fisher) was incorporated into the culture medium for 24 h. Cells were fixed at the indicated time points in 4% paraformaldehyde (PFA) for 15 min at RT. After fixation, samples were washed in PBS twice and then stained with Click-iT™ EdU Cell Proliferation Kit containing 11 mM CuSO4 (from 50 mM stock) and 1 μg/mL of Alexa Fluor-555 azide (from 0.5 mg/mL, Thermo Fisher) for 30 minutes at RT in the dark. The staining cocktail was then removed, and cells were washed with PBS. Then, hNPCs were counterstained with anti-rabbit SOX-2 antibody following the immunofluorescence protocol described below and 4′, 6-diamidino-2-phenylindole (DAPI, Thermo Fisher) at 5 μg/mL in PBS for 20 min at RT. The cells were then washed with PBS and mounted with Immu-Mount (Fisher Scientific) for imaging.
For immunofluorescence, fixed primary cultures or free-floating tissue sections (40 m Thick) were incubated in blocking buffer containing 0.02% Triton-X (Sigma-Aldrich), 1% NHS (Gibco) and PBS 1× (Gibco). Samples were incubated with primary antibodies over night at 4° C. Alexa-488, Alexa-555 and/or Alexa-647 (1:500, Thermofisher) were used as secondary antibodies. DAPI (1:500, Thermofisher) was used to stain nuclei. […]

[1] = Diffusion ordered spectroscopy (DOSY), pulse-field gradient NMR; format: physicochemical
Protocol: The diffusion coefficients were measured by pulse-field gradient NMR using the longitudinal eddy-current delay with bipolar pulse pairs pulse sequence with a maximum gradient strength of 53.5 G/cm and 16 values for the gradient strength. The peak intensity I was measured and fit to the Stejskal-Tanner equation: […]
where I0 is the intensity in the absence of the gradient pulse, D is the diffusion coefficient, γ is the proton gyromagnetic ratio, g is the gradient strength, δ is the length of the pulse field gradient pulse (2 ms) and Δ is the diffusion delay (0.1 s).
The […] was calculated from the Stokes-Einstein equation as: […]
where kB is the Boltzmann constant, T is the temperature, and f is the viscosity.
PA materials were mixed (90 mol % of IKVAV PA2+10 mol % FGF2 PAs) and sonicated as described above and then lyophilized. Samples were then dissolved in D2O water and solubilized in 1 equiv. NaOD at a concentration of 6 mM in standard 5 mm NMR tube with 0.25 mM sodium trimethylsilylpropanesulfonate (DSS) as a chemical shift reference and an intensity standard. […] Diffusion coefficients were measured using pulse-field gradient NMR using the stimulated echo pules sequence with a 2 ms gradient pulse and a 100 ms diffusion delay time using a maximum gradient strength of 53 G/cm.

In the case of C16-A2G2E4GIKVAV [IKVAV PA2], the “percentage of proliferating EdU+ and SOX2+ cells” value (hNPCs) was “decreased significantly”, the “percentage of neuronal progenitor cells PAX6+” value (hNPCs; one week later) was “increased percentage” and the Rh ([1]; calculated from Stokes-Einstein equation) was 1.4 nm. For the same substance, the D ([1]; diffusion coefficient, DOSY) was 1.6 ± 0.01 × 10^−10 m^2/s.
